± gives the standard deviation of the averaged measurements.
What was measured:
[1] = system: Homo sapiens (human subject panel, olfactory perception); experiment: perceived odor pleasantness rating (rating 0-100); higher = more pleasant
Protocol: (§1)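 Human olfactory psychophysics. 55 healthy subjects (after excluding 6 low performers) sniffed 1 mL of each odorant diluted in paraffin oil (vials, two dilutions per molecule, 20 molecules presented twice). Each subject rated intensity, pleasantness and familiarity on a 0-100 slider, starting at 50 and required to move. Ratings were given only when the subject reported detecting a smell; per-subject ratings are averaged over subjects.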

[2] = system: Homo sapiens (human subject panel, olfactory perception); experiment: perceived odor intensity rating (rating 0-100); higher = stronger perceived smell
Protocol: as §1

[3] = system: Homo sapiens (human subject panel, olfactory perception); experiment: perceived odor familiarity rating (rating 0-100); higher = more familiar
Protocol: as §1

[4] = odor dilution in paraffin oil: 1/1,000
[5] = odor dilution in paraffin oil: 1/100,000
[6] = odor dilution in paraffin oil: 1/10
[7] = odor dilution in paraffin oil: 1/10,000,000

| Compound | perceived odor pleasantness rating [1, 4] | perceived odor pleasantness rating [1, 5] | perceived odor intensity rating [2, 4] | perceived odor intensity rating [2, 5] | perceived odor familiarity rating [3, 4] | perceived odor familiarity rating [3, 5] | perceived odor pleasantness rating [1, 6] | perceived odor intensity rating [2, 6] | perceived odor familiarity rating [3, 6] | perceived odor pleasantness rating [1, 7] | perceived odor intensity rating [2, 7] | perceived odor familiarity rating [3, 7] |
| --- | --- | --- | --- | --- | --- | --- | --- | --- | --- | --- | --- | --- |
| C=CCCCCCC [1-Octene] | 39.1 ± 24 | 48 ± 26 | 39.7 ± 29 | 33.6 ± 30 | 42.9 ± 28 | 45.6 ± 31 |  |  |  |  |  |  |
| C=CC(O)CC (configuration not stated) [1-Penten-3-ol] | 40.7 ± 29 | 43.3 ± 22 | 53 ± 32 | 31.3 ± 32 | 43 ± 35 | 34.7 ± 24 |  |  |  |  |  |  |
| CCC(O)c1ccccc1 (configuration not stated) [1-Phenyl-1-propanol] | 54 ± 20 | 48.9 ± 19 | 36.6 ± 32 | 15.2 ± 22 | 39.2 ± 31 | 25.5 ± 26 |  |  |  |  |  |  |
| CCCCCCCCCCCO [1-undecanol] | 41.9 ± 28 |  | 42.8 ± 32 |  | 37.1 ± 30 |  | 41 ± 28 | 74.9 ± 24 | 51 ± 32 |  |  |  |
| c1coc(CSCc2ccco2)c1 [2,2'-(Thiodimethylene)difuran] | 20.1 ± 23 | 26.9 ± 24 | 77.1 ± 24 | 73.5 ± 22 | 44.9 ± 32 | 52 ± 32 |  |  |  |  |  |  |
| Cc1nc(C)c(C)nc1C [2,3,5,6-Tetramethylpyrazine] | 49.4 ± 22 |  | 25.8 ± 25 |  | 35.7 ± 28 |  | 28.7 ± 23 | 79.1 ± 18 | 41.3 ± 31 |  |  |  |
| CCc1nccnc1CC [2,3-Diethylpyrazine] |  | 34.3 ± 24 |  | 70.7 ± 26 |  | 55 ± 28 |  |  |  | 40.3 ± 18 | 30.4 ± 29 | 44.9 ± 28 |
| CC(=O)C(C)=O [2,3-butanedione] | 24.5 ± 19 | 35.9 ± 22 | 81.7 ± 19 | 55.8 ± 28 | 49.3 ± 34 | 50 ± 29 |  |  |  |  |  |  |
| Cc1nc(C)c(C)s1 [2,4,5-Trimethylthiazole] |  | 33.8 ± 26 |  | 67.9 ± 26 |  | 48.4 ± 31 |  |  |  | 44.2 ± 27 | 35.2 ± 31 | 46.4 ± 31 |
| OC1CSC(O)CS1 (configuration not stated) [2,5-Dihydroxy-1,4-dithiane] | 13.8 ± 22 |  | 88.4 ± 16 |  | 51.5 ± 32 |  | 16.9 ± 25 | 86.4 ± 16 | 50.9 ± 35 |  |  |  |
| COC1=C(C)OC(C)C1=O (configuration not stated) [2,5-Dimethyl-4-methoxy-3(2H)-furanone] | 26 ± 19 | 28.2 ± 23 | 74.8 ± 24 | 56.3 ± 31 | 45.4 ± 33 | 44.1 ± 28 |  |  |  |  |  |  |
| Cc1ccc(C)[nH]1 [2,5-Dimethylpyrrole] | 53 ± 27 | 48.2 ± 26 | 71.4 ± 23 | 50.6 ± 30 | 62 ± 28 | 48 ± 31 |  |  |  |  |  |  |
| Cc1cnc(C)cn1 [2,5-dimethyl pyrazine] |  | 38.5 ± 21 |  | 50.3 ± 30 |  | 43.8 ± 30 |  |  |  | 48.4 ± 24 | 29.3 ± 31 | 37.1 ± 28 |
| Cc1cccc(C)n1 [2,6-Dimethylpyridine] | 29.8 ± 24 | 35.3 ± 23 | 78.1 ± 20 | 54.1 ± 32 | 47.3 ± 32 | 42.5 ± 31 |  |  |  |  |  |  |
| CCC(C)c1nccs1 (configuration not stated) [2-(1-Methylpropyl)thiazole] | 25.7 ± 25 | 31.8 ± 23 | 83.9 ± 17 | 55.6 ± 31 | 41.3 ± 32 | 43.9 ± 31 |  |  |  |  |  |  |
| CSCCO [2-(Methylthio)ethanol] | 34.1 ± 31 | 40 ± 18 | 77.7 ± 23 | 32.3 ± 29 | 53.8 ± 34 | 37.4 ± 31 |  |  |  |  |  |  |
| CC(=O)c1ncc(C)nc1C [2-Acetyl-3,5(6)-dimethylpyrazine] | 31.5 ± 32 | 49.4 ± 29 | 85.4 ± 17 | 65.1 ± 26 | 58.6 ± 36 | 58.1 ± 31 |  |  |  |  |  |  |

Source: the supplement of paper PMC4977894
